In PMC6089346 (Journal of the American Chemical Society, 2015):

What was measured:
[1] = molecular target: human PARG (Homo sapiens, UniProt Q86W56, E756N); experiment: fluorescence polarization direct binding
[2] = molecular target: human PARG (Homo sapiens, UniProt Q86W56, E755N); experiment: fluorescence polarization direct binding
Sequence of human PARG (Homo sapiens, UniProt Q86W56, E755N) (Q86W56 whole entry E755N): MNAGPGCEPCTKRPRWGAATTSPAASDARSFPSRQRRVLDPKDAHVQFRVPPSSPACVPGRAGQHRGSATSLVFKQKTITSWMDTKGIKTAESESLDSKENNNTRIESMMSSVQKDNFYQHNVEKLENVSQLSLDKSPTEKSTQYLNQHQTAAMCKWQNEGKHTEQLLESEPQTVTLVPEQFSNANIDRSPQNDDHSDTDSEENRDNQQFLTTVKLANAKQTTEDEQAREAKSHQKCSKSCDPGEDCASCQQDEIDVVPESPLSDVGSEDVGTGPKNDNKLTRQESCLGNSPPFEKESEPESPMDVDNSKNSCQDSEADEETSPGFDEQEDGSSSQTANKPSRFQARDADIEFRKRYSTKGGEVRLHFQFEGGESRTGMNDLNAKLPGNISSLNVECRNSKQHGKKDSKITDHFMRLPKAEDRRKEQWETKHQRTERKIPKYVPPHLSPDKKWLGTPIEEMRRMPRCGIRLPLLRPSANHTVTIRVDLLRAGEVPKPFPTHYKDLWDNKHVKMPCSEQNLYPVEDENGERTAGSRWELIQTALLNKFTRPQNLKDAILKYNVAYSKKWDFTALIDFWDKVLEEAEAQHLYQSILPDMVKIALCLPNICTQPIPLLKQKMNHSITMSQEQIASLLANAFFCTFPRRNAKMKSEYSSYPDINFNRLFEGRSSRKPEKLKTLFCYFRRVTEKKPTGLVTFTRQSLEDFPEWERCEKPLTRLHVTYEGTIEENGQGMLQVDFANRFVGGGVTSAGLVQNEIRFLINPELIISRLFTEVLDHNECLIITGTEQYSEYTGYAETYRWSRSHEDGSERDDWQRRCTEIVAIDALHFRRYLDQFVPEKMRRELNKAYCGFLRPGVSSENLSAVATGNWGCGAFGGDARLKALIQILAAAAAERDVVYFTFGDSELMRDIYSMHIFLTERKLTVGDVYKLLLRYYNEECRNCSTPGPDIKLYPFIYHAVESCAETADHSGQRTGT

Sequence of human PARG (Homo sapiens, UniProt Q86W56, E756N) (Q86W56 whole entry E756N): as the sequence (Q86W56 whole entry E755N) above, with N755E, E756N counted along it

Kd [1]: 83 ± 7 nM | Kd [2]: 208 ± 14 nM
Substance: Cy3 ADP-ribose dimer [compound 22]
